# Laboratory results from patent US20260069563A1, “CETOLEIC ACID COMPOSITION” (Epax Norway AS, priority 2022, published 2026).
# Tested on: human fibroblasts
# Assay: Wound healing model (scratch wound) in human fibroblasts
# Type: cell-based
# Details: 14 hours after wounding; initial wound area defined as 100%; added to cell culture medium
# Source text: Preliminary cell studies with human fibroblasts have been performed to test potential health benefits of LCMUFA in skin.
# The main objective of the study was to show whether addition of a LCMUFA concentrate (Cetoleic acid concentrate) or DHA to cell culture medium would: • 1) Influence the capacity of the cells to regenerate after damage (so called “wound healing model”), • 2) Influence the production of melanin (skin pigment), • 3) Influence the expression of genes involved in inflammation after induced oxidative stress.
# Wound healing model: Treatment arms included addition of DHA or the LCMUFA contrate to the cell culture medium, respectively. The control was cells only added culture medium, no fatty acids. The effect on closing of wound 14 hours after initiation of a wound was measured.
# The initial wound area was defined as 100%, then the wound opening was measured after 14 hours to a percentage of the original wound. The reduction was approximately 60% for LC-MUFA and 50% for DHA, respectively.
structure (smiles),measurement,value
"CC/C=C\C/C=C\C/C=C\C/C=C\C/C=C\C/C=C\CCC(=O)O [DHA, Docosahexaenoic acid]",reduction of scratch wound area,~50%
